From patent publication US5166155A, “Quinoxaline-2,3-dione compounds and their preparation and use” (Novo Nordisk A/S, priority 1990, dated 1992)

What was measured:
[1] = system: NMDA receptor/ionophor complex, allosteric modulatory (glycine) site; conditions: literature; cited from earlier work
[2] = molecular target: T1, NMDA receptor glycine site (glycine enhanced [3H]-MK-801 binding) (Rattus norvegicus, UniProt P35439); assay: Antagonism of glycine enhanced [3H]-MK-801 binding (Test 2); conditions: Schild analysis; [3H]-MK-801 1 nM, glutamate 300 nM, rat cerebral membrane, 23° C., 60 min, pH 7.40
T1 construct: thawed and extensively washed rat cerebral membrane homogenate; from tissue; host or cells: rat cerebrum, extensively washed membrane homogenate
Procedure: The glycine antagonism is measured by determining the Ki value which represents the dissociation constant (μM) of the receptor-antagonist complex.
1 ml of thawed and extensively washed rat cerebral membrane homogenate in HEPES-NaOH (20 mM) pH 7.40 were incubated at 23° C. for 60 min. with 25 μl [^3 H]-MK-801 (1 nM final concentration), 25 μl glutamate (300 nM final concentration), test compound in concentrations corresponding to 0, 0.5, 2 and 5 times the IC50 value from the [^3 H]-glycine binding assay (test 1) for each concentration of glycine (10; 100; 1,000; 10,000 and 100,000 nM final concentration). The binding reaction was terminated by adding 5 ml of ice-cold buffer followed by rapid filtration through Whatman GF/C glass fiber filters and 5 ml wash with ice-cold buffer. Bound radioactivity was measured by scintillation counting. Ki values were determined by Schild analysis of the data using
log(dosis ration-1)=log[Inhibitor]-log(Ki).

[3] = system: NMDA stimulated [3H]-GABA release; assay: Inhibition of NMDA stimulated [3H]-GABA release from cultured mouse cerebral cortex interneurons (Test 3); format: cell-based; conditions: 3 μg/ml NMDA, 37° C.
Procedure: The NMDA antagonistic properties of the compounds is illustrated by determining their capability to antagonize NMDA stimulated [^3 H]-GABA release from cultured mouse cortex neurons. The NMDA antagonistic activity of the compounds may be shown by determining the IC50 value, which represents the concentration (μM) which inhibits 50% of NMDA induced [^3 H]-GABA release.
Release experiments are performed using the model described by Drejer et al. (Life Sci. 38, 2077 (1986)). To cerebral cortex interneurons cultured in petri dishes (30 mm) are added 100 μg/ml 3-vinyl-GABA one hour before the experiment in order to inhibit degradation of GABA in the neurons. 30 min. before the experiment 5 μCi [^3 H]-GABA is added to each culture and after this preloading period the cells are washed twice with HEPES buffered saline (HBS) containing 10 mM HEPES, 135 mM NaCl, 5 mM KCl, 0.6 mM MgSO4, 1.0 mM CaCl2 and 6 mM D-glucose; pH 7 and placed in a superfusion system. This system consists of a peristaltic pump continuously delivering thermostated 37° C. superfusion medium from a reservoir to the top of a slightly tilted petri dish. The cell monolayer at the bottom of the dish is covered with a piece of nylon mesh to facilitate dispersion of medium over the cell layer. The medium is continuously collected from the lower part of the dish and delivered to a fraction collector. Initially, the cells are superfused with HBS for 15 min. (flow rate 2 ml/min.). Then cells are stimulated for 30 sec. every 4 min. by changing the superfusion medium from HBS to a corresponding medium containing NMDA and antagonist according to the following scheme:
Stimulation no. 1:3 μg/ml NMDA
Stimulation no. 2:3 μg/ml NMDA+0.3 μg/ml antagonist
Stimulation no. 3:3 μg/ml NMDA+3.0 μg/ml antagonist
The release of [^3 H]-GABA in the presence of NMDA is corrected for the mean basal release before and after stimulation. The stimulated release in the presence of antagonist is expressed relative to the stimulated release by NMDA alone and the IC50 value is calculated.

[4] = molecular target: T2, glycine site of the NMDA receptor complex (Rattus norvegicus, UniProt P35439); assay: [3H]-glycine binding (Test 1); conditions: [3H]-glycine 10 nM, rat cerebral cortical membrane, 0° C., 10 min, pH 7.1
T2 construct: thawed rat cerebral cortical membrane homogenate; from tissue; host or cells: rat cerebral cortex, membrane homogenate
Procedure: The glycine site binding activity of these compounds of the present invention can be illustrated by determining their capability for displacing radioactively labelled glycine from the glycine site.
The displacement activity of the compounds may be shown by determining the IC50 value which represents the concentration (μM) which causes a displacement of 50% of the specific binding of [^3 H]-glycine.
1 ml of thawed rat cerebral cortical membrane homogenate in HEPES-Tris (5 mM) and MgCl2 (1 mM) pH 7.1 were incubated at 0° C. for 10 min. with 25 μl [^3 H]-glycine (10 nM final concentration) and the test compound and buffer. Non-specific binding was determined by incubating with D-serine (1 mM final concentration). The binding reaction was terminated by centrifugation at 15,000×g at 4° C. followed by washing of the pellet with three times 3 ml of ice-cold buffer. Bound radioactivity was measured by scintillation counting. IC50 was determined by Hill analysis of at least four concentrations of test compound.

NMDA receptor = conditions: cited from earlier work

SMILES | Ki [2] | IC50 [3] | IC50 [4] | other results
O=C(O)c1cc(O)c2ccc(Cl)cc2n1 [7-chlorokynurenate] |  |  |  | agonist/antagonist activity at the glycine site [1]: quite strong, but non-selective antagonists of glycine at the glycine site
N#Cc1cc2[nH]c(=O)c(=O)[nH]c2cc1[N+](=O)[O-] [CNQX, 6-cyano-7-nitroquinoxaline-2,3-dione] |  |  |  | agonist/antagonist activity at the glycine site [1]: weak antagonists
C[C@@H](N)C(=O)O [D-alanine] |  |  |  | agonist/antagonist activity at the glycine site [1]: strong agonist activity
N[C@@H]1CONC1=O [D-cycloserine] |  |  |  | agonist/antagonist activity at the glycine site [1]: partial agonists
N[C@H](CO)C(=O)O [D-serine] |  |  |  | agonist/antagonist activity at the glycine site [1]: strong agonist activity
O=C(O)Cn1c(=O)c(=O)[nH]c2cc(Cl)c(Cl)cc21 [Example 1, 1-Carboxymethyl-6,7-dichloroquinoxaline-2,3(1H,4H)-dione] | 162 nM | 163 nM | 350 nM | 
O=C(O)Cn1c(=O)c(=O)[nH]c2cc(Br)ccc21 [Example 3, 6-Bromo-1-carboxymethylquinoxaline-2,3(1H,4H)-dione] | 127 nM | 505 nM | 544 nM | 
O=C(O)Cn1c(=O)c(=O)[nH]c2cc(F)c(F)cc21 [Example 4, 1-Carboxymethyl-6,7-difluoroquinoxaline-2,3(1H,4H)-dione] | 118 nM | 328 nM | 500 nM | 
Cc1cc2[nH]c(=O)c(=O)n(CC(=O)O)c2cc1C [Example 5, 1-Carboxymethyl-6,7-dimethylquinoxaline-2,3(1H,4H)-dione] | 212 nM | 509 nM | 554 nM | 
O=C(O)Cn1c(=O)c(=O)[nH]c2cc(Cl)ccc21 [Example 6, 1-Carboxymethyl-6-chloroquinoxaline-2,3(1H,4H)-dione] | 3400 nM | 394 nM | 520 nM | 
O=C(O)Cn1c(=O)c(=O)[nH]c2cc([N+](=O)[O-])ccc21 [Example 7, 1-Carboxymethyl-6-nitroquinoxaline-2,3(1H,4H)-dione] |  |  | 2000 nM | 
CCCCC(C(=O)O)n1c(=O)c(=O)[nH]c2ccccc21 (centres unmarked) [Example 8, 1-((1-Carboxy)pentyl)-quinoxaline-2,3(1H,4H)-dione] | 770 nM | 1880 nM | 2200 nM | 
CCCC(C(=O)O)n1c(=O)c(=O)[nH]c2ccccc21 (centres unmarked) [Example 9, 1-((1-Carboxy)butyl)quinoxaline-2,3(1H,4H)-dione] | 1900 nM | 2860 nM | 5000 nM | 
O=C(O)C(c1ccccc1)n1c(=O)c(=O)[nH]c2ccccc21 (centres unmarked) [Example 10, 1-(1-Carboxy-1-phenylmethyl)quinoxaline-2,3(1H,4H)-dione] |  | 2620 nM | 8000 nM | 
CC(C(=O)O)n1c(=O)c(=O)[nH]c2ccccc21 (centres unmarked) [Example 11, 1-((1-Carboxy)ethyl)quinoxaline-2,3(1H,4H)-dione] | 900 nM |  | 3000 nM | 
O=C(O)Cn1c(=O)c(=O)[nH]c2cc(Br)c(Br)cc21 [Example 12, 1-Carboxymethyl-6,7-dibromoquinoxaline-2,3(1H,4H)-dione] | 390 nM | 127 nM | 849 nM | 
COc1ccc2c(c1)n(O)c(=O)c(=O)n2CC(=O)O [Example 13, 1-Carboxymethyl-4-hydroxy-6-methoxyquinoxalin-2,3(1H,4H)-dione] |  | > 3750 nM | 8000 nM | 
CCCCCC(C(=O)O)n1c(=O)c(=O)[nH]c2cc(Br)ccc21 (centres unmarked) [Example 15, 1-((1-Carboxy)hexyl)-6-bromoquinoxaline-2,3(1H, 4H)-dione] | 49 nM | 2640 nM | 587 nM | 
CCCCC(C(=O)O)n1c(=O)c(=O)[nH]c2cc(Cl)c(Cl)cc21 (centres unmarked) [Example 16, 1-((1-carboxy)pentyl)-6,7-dichloroquinoxaline-2,3(1H,4H)-dione] | 100 nM |  | 409 nM | 
O=C(O)Cn1c(=O)c(=O)[nH]c2ccc([N+](=O)[O-])cc21 [Example 19, 1-Carboxymethyl-7-nitroquinoxaline-2,3(1H,4H)-dione] |  |  | 7000 nM | 
O=C(O)Cn1c(=O)c(=O)[nH]c2cc(Cl)cc(Cl)c21 [Example 22, 1-Carboxymethyl-6,8-dichloroquinoxaline-2,3(1H, 4H)-dione] |  |  | 852 nM | 
NC1CCN(O)C1=O (centres unmarked) [HA-966, 3-amino-1-hydroxy-2-pyrrolidone] |  |  |  | agonist/antagonist activity at the glycine site [1]: weak antagonists
NCC(=O)O [glycine] |  |  |  | effect on NMDA receptor agonist induced responses (NMDA receptor): increase NMDA receptor agonist induced responses; glycine site binding affinity [1]: high affinity binding
O=C1C[C@@H]2OCC=C3CN4CC[C@]56c7ccccc7N1[C@H]5[C@H]2[C@H]3C[C@H]46 [strychnine] |  |  |  | sensitivity of the glycine response to strychnine (NMDA receptor; cultured neurons, literature): insensitive
